A word on the MBC: it is the smallest concentration meeting the test's criterion for killing.

The source of these data is US6066628A, “Non-iron metalloporphyrins and methods of use” (Emory University, priority 1998, dated 2000).

Values after ≈ are worked out from the molar mass of the structure shown. Values joined by “and” are separate entries in the source; they are usually repeats but may differ in a detail not shown here. Equal entries are not always repeated. Where two headings read alike, the source gives them in different places.

For assay [1], the system named is Y. enterocolitica. The assay is described as follows: Competition of heme/protoporphyrin IX with Ga-PPIX antibacterial activity.
The subject of assay [2] is S. aureus. The assay is classed as cell-based, Staphylococcus aureus. The following applies: for Minimal inhibitory concentration (MIC): methicillin-resistant S. aureus IR219, Nutrient broth (Table 2); for antibacterial activity: S. aureus; for MIC: S. aureus IR2419, dark (Table 10).
The test system of assay [3] is M. smegmatis. Nature of the assay: Competition of heme/protoporphyrin IX with Ga-PPIX antibacterial activity.
The subject of assay [4] is M. smegmatis. The class given is cell-based, Mycobacterium smegmatis. Conditions: for Minimal inhibitory concentration (MIC) / MIC: M. smegmatis LR222; for Minimal inhibitory concentration (MIC): LB + Tween 80 (Table 2); for antibacterial activity: M. smegmatis; for MIC: dark (Table 10).
The subject of assay [5] is S. aureus. Nature of the assay: Competition of heme/protoporphyrin IX with Ga-PPIX antibacterial activity. The assay is classed as cell-based, Staphylococcus aureus.
The test system of assay [6] is Y. enterocolitica. The assay is described as follows: microbe, parasite or virus in culture. The assay is classed as cell-based.
The subject of assay [7] is M. smegmatis. The assay is described as follows: Minimal bactericidal concentration. The assay is classed as cell-based, Mycobacterium smegmatis. Conditions: reduces plating efficiency more than 99.9%, minimal exposure to light; for MBC: Mycolicibacterium smegmatis.
Assay [8] relates to Y. enterocolitica. Nature of the assay: Minimal bactericidal concentration. The following applies: reduces plating efficiency more than 99.9%, minimal exposure to light; for MBC: Yersinia enterocolitica. The assay is classed as cell-based.
For assay [9], the system named is S. aureus. The assay is described as follows: Minimal bactericidal concentration. The assay is classed as cell-based, Staphylococcus aureus. The following applies: reduces plating efficiency more than 99.9%, minimal exposure to light; for MBC: Staphylococcus aureus. The protocol: Minimal bactericidal concentrations (MBCs) were determined essentially the same way as MICs except that the amount of killing with a particular concentration of porphyrin derivative was determined by plating on solid microbiological media (LB plates or LB+Tween 80). Media were solidified by the incorporation of 1.5% agar (Difco Laboratories). Concentrations of porphyrins that produced 99.9% reduction in bacterial counts were considered bactericidal [Hindler et al. (1994) supra].
MBC were determined by plating bacterial cultures that have been incubate
in the presence of MPs at concentrations higher than MIC. MBC was defined
as a concentration of a particular MP which reduces the plating efficienc
more than 99.9%. Experiments were done with minimal exposure to light
(addition of porphyrins waa done in the presence of artifical light).

Assay [10] has as its system bacteria. The class given is cell-based. Conditions: for MICs: porphyrins without Ga ions, all tested bacteria.
Setting [11] is: +1 μg/ml Ga-PPIX, competitor 1 μg/ml.
The mark [12] stands for this setting: +1 μg/ml Ga-PPIX, competitor 10 μg/ml.
Setting [13] is: +1 μg/ml Ga-PPIX, competitor 20 μg/ml.
The mark [14] stands for this setting: +1 μg/ml Ga-PPIX, competitor 100 μg/ml.
Where [15] appears, read: -1 μg/ml Ga-PPIX (without Ga-PPIX), 1 μg/ml.
[16] abbreviates: -1 μg/ml Ga-PPIX (without Ga-PPIX), 10 μg/ml.
The mark [17] stands for this setting: -1 μg/ml Ga-PPIX (without Ga-PPIX), 20 μg/ml.
Where [18] appears, read: -1 μg/ml Ga-PPIX (without Ga-PPIX), 100 μg/ml.
The mark [19] stands for this setting: Staphylococcus aureus, read-out: MIC.
Where [20] appears, read: Mycolicibacterium smegmatis, read-out: MIC.
Where [21] appears, read: iron restriction / 2,2'-dipyridyl.

Regarding `C=CC1=C(C)c2cc3[n-]c(cc4[n-]c(cc5nc(cc1n2)C(C)=C5C=C)c(C)c4CCC(=O)O)c(CCC(=O)O)c3C.[Fe+2]` [Fe-PPIX], the growth result in assay [1] (setting [11]) is on record as “-”; in assay [1] (setting [12]) it was “+”; in [1] (setting [13]) it was “+”; in assay [1] (setting [14]) it was “+”; in assay [1] (setting [15]), “+”; in assay [1] (setting [16]) it was “+”. Besides, the growth entry is given as “+” in assay [1] (setting [17]); “+” in assay [1] (setting [18]); “-” in assay [3] (setting [11]); “-” in assay [3] (setting [12]); “-” in assay [3] (setting [13]); “-” in assay [3] (setting [14]). The growth entry in [3] (setting [15]) was “+”; in [3] (setting [16]), “+”; in assay [3] (setting [17]), “+”; in [3] (setting [18]), “+”; in assay [5] (setting [11]), “-”; in assay [5] (setting [12]), “-”. Also, the growth result in assay [5] (setting [13]) is “-”; in assay [5] (setting [14]) it was “-”; in assay [5] (setting [15]), “+”; in assay [5] (setting [16]), “+”; in assay [5] (setting [17]) it was “+”; in assay [5] (setting [18]), “+”. The “Minimal inhibitory concentration (MIC)” value in [2] was above 40 µg/mL; in assay [4], above 40 µg/mL; in assay [6], above 40. For the same compound, the “antagonism of Ga-PPIX antibacterial activity” value in [3] (heme 10- to 100-fold molar excess, protoporphyrin IX 20- and 100-fold excess) is recorded as “did not antagonize”; in [5] (heme 10- to 100-fold molar excess, protoporphyrin IX 100-fold excess), “did not antagonize”. For the same compound, in assay [5] (heme dissolved in 20 mM NaOH), the “toxic effect on S. aureus” value is recorded as “not observed”.

Consider `CCC1=C(C)c2cc3[nH]c(cc4nc(cc5[nH]c(cc1n2)c(C)c5CCC(=O)O)C(CCC(=O)O)=C4C)c(C)c3CC` [MP-IX, mesoporphyrin IX, reference compound], for which the MBC in assay [7] is above 40 µg/mL; in assay [8] it was above 10 µg/mL; in assay [9], above 13 µg/mL. Moreover, the “antibacterial activity” value in [2] and in assay [4] was “largely inactive” throughout. Also, the MIC in assay [2] (setting [19]) is 20 µg/mL (≈ 35.3 µM); in assay [4] (setting [20]), above 40 µg/mL.

With `CC1(C)S[C@@H]2[C@H](NC(=O)[C@H](N)c3ccccc3)C(=O)N2[C@H]1C(=O)O` [ampicillin, reference compound], in assay [10] (setting [21]), the “effect of iron restriction medium conditions on MIC” value (“effect … on MIC” below) is “not affected”.

With Gallium (+3) hematoporphyrin IX, the “antibacterial activity” value in [10] is “active against all microorganisms challenged”.

Consider `CCC1=C(CC)c2cc3[nH]c(cc4nc(cc5[nH]c(cc1n2)c(CC)c5CC)C(CC)=C4CC)c(CC)c3CC.[Ga]` [GA-OEP], for which the “Minimal bactericidal concentration (MBC)” value is 10 in assay [7], above 20 in assay [8] and 5 in [9]. The results for the MIC in assay [2], in [4] and in assay [6] (in µg/mL) were 10 µg/mL, 5 µg/mL and 20, respectively.

With `C=CC1=C(C)C2=Cc3c(C=C)c(C)c4[n]3[Gd]([Cl])[n]3c(c(C)c(CCC(=O)O)c3=CC3=NC(=C4)C(C)=C3CCC(=O)O)=CC1=N2` [Gd-PPIX, Gadolinium protoporphyrin IX], the “Minimal bactericidal concentration (MBC)” value in assay [8] is reported as 10.

With `C=CC1=C(C)c2cc3[n-]c(cc4nc(cc5[n-]c(cc1n2)c(C)c5CCC(=O)O)C(CCC(=O)O)=C4C)c(C)c3C=C.[Pt+2]` [Pt-PPIX, Platinum protoporphyrin IX], the “Minimal inhibitory concentration (MIC)” value was found to be 40 µg/mL in assay [2], 20 µg/mL in [4] and 30 in assay [6].

Turning to `C=Cc1c(C)c2cc3nc(c(CC(=O)O)c4[nH]c(cc5nc(cc1[nH]2)C(C)=C5CC)c(C)c4C(=O)O)[C@@H](CCC(=O)O)[C@@H]3C` [Ce6, chlorin e6, reference compound], the MIC in assay [2] is 20 µg/mL (≈ 33.5 µM); in assay [4] it was 20 µg/mL (≈ 33.5 µM); in assay [6], 20 and > 10. Further, in assay [10], the “MICs” value was “very large MICs”.

In the case of `C=CC1=C(C)c2cc3[n-]c(cc4[n-]c(cc5nc(cc1n2)C(C)=C5C=C)c(C)c4CCC(=O)[O-])c(CCC(=O)[O-])c3C.[H+].[H+].[Ni+2]` [Ni-PPIX], the entries for the “Minimal inhibitory concentration (MIC)” value in assay [2], in [4] and in [6] were above 40 µg/mL, 20 µg/mL and above 40, respectively.

As to `CCC1=C(C)C2=Cc3c(C)c(CCC(=O)O)c4[n]3[Ga][n]3c(c(C)c(CC)c3=CC3=NC(=C4)C(CCC(=O)O)=C3C)=CC1=N2` [GA-MP-IX], the entries for the “Minimal bactericidal concentration (MBC)” value in [7], in [8] and in [9] were 10, 5 and above 13, respectively. For the same compound, the MIC in [2] is 1.6 µg/mL; in assay [4], 0.4 µg/mL; in [6] (in µg/mL), 2.5 and 5.

Consider `C1=Cc2cc3ccc(cc4nc(cc5ccc(cc1n2)[nH]5)C=C4)[nH]3` [POR, porphine, reference compound], for which the MIC was 50 µg/mL (≈ 161 µM) in assay [2] (setting [19]); above 40 µg/mL in assay [4] (setting [20]); 30 µg/mL (≈ 96.7 µM) in assay [6] (Yersinia enterocolitica, read-out: MIC); 20 in assay [6] (in µg/mL). For the same compound, the “MICs” value in assay [10] was “very large MICs”.

Consider `O=C(O)CCC1=C(CC(=O)O)c2cc3[nH]c(cc4nc(cc5[nH]c(cc1n2)c(CC(=O)O)c5CCC(=O)O)C(CC(=O)O)=C4CCC(=O)O)c(CC(=O)O)c3CCC(=O)O` [UP-1, uroporphyrin I, reference compound], for which the MBC in assay [7] came out at 10 µg/mL (≈ 12 µM); in assay [9], 20 µg/mL (≈ 24.1 µM). For the same compound, the “antibacterial activity” value in assay [2] and in assay [4] was “largely inactive” throughout. In addition, the results for the MIC in [2] (setting [19]), in assay [4] (setting [20]) and in assay [6] (Yersinia enterocolitica) were 20 µg/mL (≈ 24.1 µM), 20 µg/mL (≈ 24.1 µM) and 10 µg/mL (≈ 12 µM), respectively. Besides, the “Minimal bactericidal concentration (MBC)” value in [8] is recorded as 5/10. Also, the “HemR requirement of bacterial sensitivity” value in assay [6] is given as “did not require expression of HemR”.

With `C1=CC2=NC1=Cc1ccc3[n]1[Ga][n]1c(ccc1=CC1=NC(=C3)C=C1)=C2` [GA-POR], the MIC is 50 µg/mL in [2], 5 µg/mL in assay [4] and 20 in [6] (in µg/mL).

For `CN[C@H](CC(C)C)C(=O)N[C@H]1C(=O)N[C@@H](CC(N)=O)C(=O)N[C@H]2C(=O)N[C@H]3C(=O)N[C@H](C(=O)N[C@H](C(=O)O)c4cc(O)cc(O)c4-c4cc3ccc4O)[C@H](O)c3ccc(c(Cl)c3)Oc3cc2cc(c3O[C@@H]2O[C@H](CO)[C@@H](O)[C@H](O)[C@H]2O[C@H]2C[C@](C)(N)[C@H](O)[C@H](C)O2)Oc2ccc(cc2Cl)[C@H]1O` [vancomycin, reference compound], the “effect … on MIC” value in assay [10] is “not affected”.

For the compound `O=C(N[C@H](CO)[C@H](O)c1ccc([N+](=O)[O-])cc1)C(Cl)Cl` [chloramphenicol, reference compound], the “effect … on MIC” value in [10] (setting [21]) is listed as “not affected”.

`C=CC1=C(C)c2cc3[n-]c(cc4[n-]c(cc5nc(cc1n2)C(C)=C5C=C)c(C)c4CCC(=O)O)c(CCC(=O)O)c3C.[Cu+2]` [Cu-PPIX]: the “Minimal inhibitory concentration (MIC)” value in [2] was above 40 µg/mL; in assay [4], 20 µg/mL; in assay [6], 20.

As to `CCC1=C(CC)c2cc3[nH]c(cc4nc(cc5[nH]c(cc1n2)c(CC)c5CC)C(CC)=C4CC)c(CC)c3CC` [OEP, octaethylporphine, reference compound], the MBC is 10 µg/mL (≈ 18.7 µM) in assay [7] and 5 µg/mL (≈ 9.35 µM) in assay [8]. The results for the MIC in [2] (setting [19]), in assay [4] (setting [20]) and in assay [6] (Yersinia enterocolitica) were 10 µg/mL (≈ 18.7 µM), 10 µg/mL (≈ 18.7 µM) and 5 µg/mL (≈ 9.35 µM), respectively. The “Minimal bactericidal concentration (MBC)” value in assay [9] is listed as 5/10.
